Patent US10155802B2, “Locally-active anticoagulants and anti-inflammatory agents” (priority 2011, dated 2018)
Read-outs that look alike come from different tables or passages of the source. No end group written: not given here.

Legend:
[1] = tested on: fresh blood withdrawn from rats with venous thrombosis; assay: Clotting time (aPTT) of fresh blood withdrawn from treated rats; format: in vivo; conditions: rat, 0.2 mg/kg bolus + 0.00433 mg/kg/min infusion; 20 minutes after administration versus before
Description: FIG. 23 illustrates the clotting times (aPTT) determined for fresh blood withdrawn from rats with venous thrombosis at three time points, the first before drug administration and vessel injury, the second at 20 minutes after FeCl3 application and the third 60 minutes following injection of the respective thrombin inhibitors. Clotting times (aPTT) are shown for different rats administered with each thrombin inhibitor, ZIP4 for MH2-wZIP4, ZIP5 for MH2-wZIP5 and T218 for BRI-T218. Dosage levels for every compound were 0.2 mg/kg for the single-bolus injection and 0.00433 mg/kg/min for the maintenance infusion,
Terminal blood samples were analyzed for aPTT within 15 to 30 minutes of collection using a Coag DX Analyzer with aPTT citrate cartridges (IDEXX Laboratories, Westbrook, Me., USA).

[2] = tested on: FeCl3-induced venous thrombosis (vena cava); assay: FeCl3-induced venous model of thrombosis in rats (thrombus weight); format: in vivo; conditions: rat, single-bolus injection via tail vein
Description: Male Sprague-Dawley rats (250-310 g; Charles River Laboratories, St-Constant, QC, Canada) were acclimated for at least 3 days prior to the start of the study. Animals were housed in microisolator cages and were kept on a 12-hr light/dark cycle with constant temperature and humidity. Food and water were provided ad libitum. Various anti-thrombotic agents and peptides of this invention were dissolved in saline (0.9% sodium chloride) prior to use.
The FeCl3-induced venous model of thrombosis in rats was generated as described by Wang and Xu (Wang 2005) with some modifications (Couture 2011). Briefly, rats were anesthetized with a 2.5% isoflurane/oxygen mixture and placed on a heat source (35-37° C.). The vena cava was then exposed via a midline incision and the region between the renal and iliolumbar veins was isolated. […]
Protein content of the thrombus was also measured according to protocol by Wang (Wang 2005). […] Contents of amino acids and small peptides were measured at OD280 with digestion buffer used as a blank.
Statistical analysis was conducted using GraphPad™ Prism (GraphPad Software Inc., San Diego Calif., USA). Data were analyzed using one-way ANOVA with post-hoc Bonferroni correction for multiple comparisons. The relationship between thrombus weight and thrombus volume was determined by linear regression. […]

[3] = target: thrombin (Homo sapiens, UniProt P00734); assay: Fibrinogen clotting assay (concentration needed to double the clotting time = IC50); format: biochemical; conditions: IC50 (anti-clotting), T = 37° C.
Description: The same enzyme kinetic assays were used to determine the inhibitory activities of MH2 and two MH2-derived peptides, MH2-allGS and MH2-GS (Table 4). Clotting assays were carried out to determine the inhibitory activities of the rest of the MH2 peptides by use of the protocols described previously (DiMaio 1990; Taka 2000; Su 2004). The assay employs bovine plasma fibrinogen dissolved at 0.1% in 50 mM Tris-Cl, 100 mM NaCl, 0.1% PEG-8000 at pH 7.6 (i.e. the clotting buffer). In addition to the use of optical densities or ODs (Gill 1989), concentrations of the peptide stock solutions were ranked (and corrected when necessary) by use of quantitative proton NMR spectroscopy (Cavaluzzi 2002). Each assay mixture contained a certain concentration of the peptide, and the reaction was started by the addition of human thrombin to a final concentration of approximately 0.5 nM. Optical absorbance of the assay mixtures was measured at 420 nm using the Spectramax™ plate reader. The onset clotting time was determined as an intersection of the baseline and the tangent line at point of inflection of the clotting curve. The concentration of an MH2 peptide needed to double the clotting time was defined as IC50 (DiMaio 1990) as illustrated in FIG. 4 and summarized in Table 4. The correlation between IC50 values and linker unfolding is similar to that for the BTI series of inhibitors (Table 3). […] (Table 3).

[4] = tested on: pooled human plasma; assay: Prothrombin time (PT, thromboplastin) clotting assay; format: biochemical
Description: (§1) Prothrombin (clotting) time (PT) or activated partial thromboplastin (clotting) time (APTT) assays were carried out at certain concentrations of the thrombin inhibitors of the present invention using pooled human plasma with addition of thromboplastin or activated partial thromboplastin to initiate clotting. The assays employed kits from Biopool International (Ventura, Calif., USA) or from Pacific Haemostasis (Middletown, Va., USA) using the procedures supplied by the manufacturer. Briefly, the stock solution of an inhibitor (with the concentration determined using UV-based OD determination, see Gill 1989) is diluted in a buffer of 20 mM HEPES and 150 mM NaCl at pH 7.4 (HBS) to a final volume of 50 μL, to which is added the reconstituted normal plasma (Product #CMS-176172 from Fisher Scientific) in an equal volume. This solution mixture is equilibrated at 37° C. for 2 minutes before 50 μL of the APTT-10XL solution (CMS-022927) is introduced forcibly to ensure proper mixing. This new mixture was incubated at 37° C. for another 5 minutes, which is followed by the addition of 50 μL of 0.02 M […] (Fisher Scientific CMS-022925) pre-warmed at 37° C. For the prothrombin time (PT) assay, an inhibitor is diluted in HBS to a final volume of 25 μL, to which is added the reconstituted control plasma (Fisher Scientific CMS-176172) in an equal volume. This solution mixture is equilibrated at 37° C. for 5 minutes before addition of 100 μL of the thromboplastin solution (CMS-176099) pre-warmed at 37° C. For APTT assays, inhibitory activities of the peptides are expressed as concentrations needed to achieve 50% of the maximum delay in clotting time (MCT50) as compared to the absence of thrombin inhibitors (Maraganore 1989). For PT assays, inhibitory activities are measured as the concentrations of the peptides that prolong the clotting time by 50% (IC50) of that of the normal control plasma (Maraganore 1990). PT and APTT assays were also carried out using slightly modified experimental procedures. Thus, 50 μL of a control plasma (Pacific Hemostasis) solution was added to 100 μL HBS (20 mM HEPES and 150 mM NaCl at pH 7.4) containing varied concentrations of the peptides of this invention. After incubation at 37° C. for 5 min, the mixture was added to 50 μL of the thromboplastin or activated partial thromboplastin reagent. Clotting of the plasma was monitored by change in absorbance at 420 nm using a SpectraMax™ plate reader.

[5] = tested on: pooled human plasma; assay: Activated partial thromboplastin time (APTT) clotting assay; format: biochemical; conditions: 37° C.; concentration for 50% of maximum delay in clotting time; read-out: MTC50 (APTT)
Description: as §1

[6] = estimated (Cochran 2001), cited from earlier work
[7] = target: T1, rat-tail collagen type I (Rattus norvegicus, UniProt P02454+P02466); assay: Peptide-collagen binding by reduction of collagen fibril alignment (deuterium coupling constant); conditions: collagen gelation under magnetic field in presence of peptide
T1 construct: purchased BD Bioscience; host or cells: rat tail (tissue-derived)
Text: High-resolution proton NMR spectroscopy is used to illustrate the behavior of the linker peptides […] (SEQ ID NO: 2 or gb1), […] (SEQ ID NO: 3 or trpzip6), […] (SEQ ID NO: 4 or trpzip5) and […] (SEQ ID NO: 5 or trpzip4) in aqueous solutions. The peptides were synthesized using standard Fmoc chemistry and purified by reverse-phase HPLC. Their identity was confirmed by mass-spectroscopy and NMR spectroscopy. For NMR studies, a volume of (400-X) μL of a peptide dissolved in pure water was mixed with 50 μL of a 10×PBS (phosphate-buffered saline) supplemented by sodium phosphate to a final concentration of 50 mM and with 50 μL of deuterated water (D2O) to form the reference sample (where X=0) and with a certain volume (X μL) of rat-tail collagen type I (at 3.6 to 4 mg/ml in 0.02 N acetic acid from BD Bioscience), (where X is adjusted to achieve the desired final concentration of collagen), with 50 μL of the 10× modified PBS and with 50 μL of deuterated water (D2O) to form the peptide-collagen complex. The pH value of the reference peptide samples was adjusted to match the pH of the final peptide-collagen complex in order to facilitate NMR spectral comparison.
The peptide-collagen solutions were subjected to gelation under magnetic field guidance (see Example 7) followed by the measurement of fibril alignment (Ma 2008) as a semi-quantitative indication of peptide-collagen binding. […]

T1 sequence (P02454 152-1207): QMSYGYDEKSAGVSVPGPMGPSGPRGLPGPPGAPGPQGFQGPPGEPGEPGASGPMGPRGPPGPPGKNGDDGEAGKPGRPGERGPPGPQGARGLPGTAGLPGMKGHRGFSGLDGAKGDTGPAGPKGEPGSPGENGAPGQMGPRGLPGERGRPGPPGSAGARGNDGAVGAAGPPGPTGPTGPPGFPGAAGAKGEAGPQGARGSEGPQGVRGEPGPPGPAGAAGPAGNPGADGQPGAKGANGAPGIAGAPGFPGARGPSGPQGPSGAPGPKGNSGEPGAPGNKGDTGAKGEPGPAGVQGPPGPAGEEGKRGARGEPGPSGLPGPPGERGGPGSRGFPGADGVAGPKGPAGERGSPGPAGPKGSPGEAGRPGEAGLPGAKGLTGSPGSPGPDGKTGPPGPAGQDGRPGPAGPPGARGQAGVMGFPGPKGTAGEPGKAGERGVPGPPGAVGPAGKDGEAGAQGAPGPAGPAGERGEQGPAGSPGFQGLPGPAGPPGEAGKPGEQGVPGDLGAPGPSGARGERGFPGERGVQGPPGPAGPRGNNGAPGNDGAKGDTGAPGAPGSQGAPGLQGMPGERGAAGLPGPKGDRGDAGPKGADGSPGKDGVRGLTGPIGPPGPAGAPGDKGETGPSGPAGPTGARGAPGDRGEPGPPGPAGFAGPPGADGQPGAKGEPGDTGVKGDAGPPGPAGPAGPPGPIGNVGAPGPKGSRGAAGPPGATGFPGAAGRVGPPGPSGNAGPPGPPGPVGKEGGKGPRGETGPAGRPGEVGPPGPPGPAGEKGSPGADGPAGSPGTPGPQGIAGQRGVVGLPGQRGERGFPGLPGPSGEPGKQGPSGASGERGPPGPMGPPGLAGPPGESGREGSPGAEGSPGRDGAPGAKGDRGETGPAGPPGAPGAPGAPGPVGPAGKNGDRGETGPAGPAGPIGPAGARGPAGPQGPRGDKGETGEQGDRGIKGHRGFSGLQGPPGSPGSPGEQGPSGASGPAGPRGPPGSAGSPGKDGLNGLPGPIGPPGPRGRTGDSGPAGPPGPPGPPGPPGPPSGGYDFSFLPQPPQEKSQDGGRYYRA
T1 sequence (P02466 86-1125): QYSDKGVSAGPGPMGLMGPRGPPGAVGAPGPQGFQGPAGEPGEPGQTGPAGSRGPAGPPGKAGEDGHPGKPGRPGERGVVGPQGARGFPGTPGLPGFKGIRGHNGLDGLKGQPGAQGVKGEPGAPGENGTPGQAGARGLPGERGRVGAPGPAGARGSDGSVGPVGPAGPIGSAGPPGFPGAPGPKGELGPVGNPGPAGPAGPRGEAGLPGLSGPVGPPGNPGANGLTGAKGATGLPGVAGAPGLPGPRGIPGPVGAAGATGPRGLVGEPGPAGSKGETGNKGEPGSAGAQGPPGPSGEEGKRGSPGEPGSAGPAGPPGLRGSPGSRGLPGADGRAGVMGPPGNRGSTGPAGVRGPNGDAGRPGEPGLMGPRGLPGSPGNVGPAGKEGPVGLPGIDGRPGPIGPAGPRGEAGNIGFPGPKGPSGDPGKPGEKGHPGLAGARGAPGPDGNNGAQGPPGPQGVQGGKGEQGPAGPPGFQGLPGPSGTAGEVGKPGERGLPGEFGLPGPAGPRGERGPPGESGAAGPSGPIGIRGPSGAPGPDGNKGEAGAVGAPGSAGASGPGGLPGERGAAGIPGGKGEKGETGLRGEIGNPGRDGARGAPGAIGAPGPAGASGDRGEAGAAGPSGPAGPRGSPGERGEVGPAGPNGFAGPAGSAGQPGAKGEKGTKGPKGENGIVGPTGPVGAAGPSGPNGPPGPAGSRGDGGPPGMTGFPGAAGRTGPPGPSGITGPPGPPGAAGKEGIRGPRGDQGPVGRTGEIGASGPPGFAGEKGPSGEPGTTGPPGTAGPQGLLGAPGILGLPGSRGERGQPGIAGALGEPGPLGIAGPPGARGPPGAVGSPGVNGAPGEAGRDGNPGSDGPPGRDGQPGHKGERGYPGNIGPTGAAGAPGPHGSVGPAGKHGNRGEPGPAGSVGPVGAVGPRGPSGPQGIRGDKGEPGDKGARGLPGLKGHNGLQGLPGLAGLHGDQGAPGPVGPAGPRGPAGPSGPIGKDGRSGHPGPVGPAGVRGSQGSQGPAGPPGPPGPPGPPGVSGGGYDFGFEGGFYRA

Compound | clotting time (aPTT), systemic anticoagulant effect [1] | reduction of thrombus weight, venous model [2] | IC50 [3] [nM] | concentrations required in PT-APTT curves relative to MH2-GS [4] | IC50 ([4]; 37° C., concentration that prolongs clotting time by 50%) [nM] | EC50 [5] [nM] | population of unfolded species, non-zero ΔCp taken into account ([6]; 21° C.) | population of unfolded species, non-zero ΔCp taken into account ([6]; 37° C.) | reduction of deuterium coupling constant (degree of collagen fibril alignment) [7]
CC[C@H](C)[C@H](N)C(=O)N[C@@H](CCCNC(=N)N)C(=O)N[C@@H](Cc1ccccc1)C(=O)N[C@H](C(=O)N[C@@H](CC(=O)O)C(=O)NCC(=O)N[C@@H](CCC(=O)O)C(=O)N[C@@H](Cc1c[nH]c2ccccc12)C(=O)N[C@H](C(=O)N[C@@H](Cc1ccc(O)cc1)C(=O)N[C@@H](CC(=O)O)C(=O)N[C@@H](CC(=O)O)C(=O)N[C@@H](C)C(=O)N[C@H](C(=O)N[C@@H](CCCCN)C(=O)N[C@H](C(=O)N[C@@H](Cc1ccccc1)C(=O)N[C@H](C(=O)N[C@@H](Cc1c[nH]c2ccccc12)C(=O)N[C@H](C(=O)N[C@@H](CCC(=O)O)C(=O)NCC(=O)N[C@@H](CC(=O)O)C(=O)N[C@@H](Cc1ccccc1)C(=O)N[C@@H](CCC(=O)O)C(=O)N[C@@H](CCC(=O)O)C(=O)N[C@H](C(=O)N1CCC[C@H]1C(=O)N[C@@H](CCC(=O)O)C(=O)N[C@@H](CCC(=O)O)C(=O)N[C@@H](Cc1ccc(O)cc1)C(=O)N[C@@H](CC(C)C)C(=O)N[C@@H](CCC(N)=O)C(=O)O)[C@@H](C)CC)[C@@H](C)O)[C@@H](C)O)[C@@H](C)O)[C@@H](C)O)[C@@H](C)O)[C@@H](C)O [MH2-wZIP5] | only a slight prolongation of the clotting time (aPTT) | comparable to MH2-wZIP4 | 107 | about 2.5 times | < 300 | 2000 | – | – | –
GEWTYDDATKTFTVTE (not fully specified (C-terminus)) [gb1] | – | – | – | – | – | – | 0.7 | 0.85 | not significantly affected
